{
  "source": "patent US7244744B2",
  "about": "“Piperidines” (Icagen, Inc., priority 2001, dated 2007)",
  "target": "T1, PN3 (Homo sapiens, UniProt Q9Y5Y9)",
  "T1 construct": "expressed in transfected cells",
  "T1 sequence (Q9Y5Y9 whole entry, species assumed)": "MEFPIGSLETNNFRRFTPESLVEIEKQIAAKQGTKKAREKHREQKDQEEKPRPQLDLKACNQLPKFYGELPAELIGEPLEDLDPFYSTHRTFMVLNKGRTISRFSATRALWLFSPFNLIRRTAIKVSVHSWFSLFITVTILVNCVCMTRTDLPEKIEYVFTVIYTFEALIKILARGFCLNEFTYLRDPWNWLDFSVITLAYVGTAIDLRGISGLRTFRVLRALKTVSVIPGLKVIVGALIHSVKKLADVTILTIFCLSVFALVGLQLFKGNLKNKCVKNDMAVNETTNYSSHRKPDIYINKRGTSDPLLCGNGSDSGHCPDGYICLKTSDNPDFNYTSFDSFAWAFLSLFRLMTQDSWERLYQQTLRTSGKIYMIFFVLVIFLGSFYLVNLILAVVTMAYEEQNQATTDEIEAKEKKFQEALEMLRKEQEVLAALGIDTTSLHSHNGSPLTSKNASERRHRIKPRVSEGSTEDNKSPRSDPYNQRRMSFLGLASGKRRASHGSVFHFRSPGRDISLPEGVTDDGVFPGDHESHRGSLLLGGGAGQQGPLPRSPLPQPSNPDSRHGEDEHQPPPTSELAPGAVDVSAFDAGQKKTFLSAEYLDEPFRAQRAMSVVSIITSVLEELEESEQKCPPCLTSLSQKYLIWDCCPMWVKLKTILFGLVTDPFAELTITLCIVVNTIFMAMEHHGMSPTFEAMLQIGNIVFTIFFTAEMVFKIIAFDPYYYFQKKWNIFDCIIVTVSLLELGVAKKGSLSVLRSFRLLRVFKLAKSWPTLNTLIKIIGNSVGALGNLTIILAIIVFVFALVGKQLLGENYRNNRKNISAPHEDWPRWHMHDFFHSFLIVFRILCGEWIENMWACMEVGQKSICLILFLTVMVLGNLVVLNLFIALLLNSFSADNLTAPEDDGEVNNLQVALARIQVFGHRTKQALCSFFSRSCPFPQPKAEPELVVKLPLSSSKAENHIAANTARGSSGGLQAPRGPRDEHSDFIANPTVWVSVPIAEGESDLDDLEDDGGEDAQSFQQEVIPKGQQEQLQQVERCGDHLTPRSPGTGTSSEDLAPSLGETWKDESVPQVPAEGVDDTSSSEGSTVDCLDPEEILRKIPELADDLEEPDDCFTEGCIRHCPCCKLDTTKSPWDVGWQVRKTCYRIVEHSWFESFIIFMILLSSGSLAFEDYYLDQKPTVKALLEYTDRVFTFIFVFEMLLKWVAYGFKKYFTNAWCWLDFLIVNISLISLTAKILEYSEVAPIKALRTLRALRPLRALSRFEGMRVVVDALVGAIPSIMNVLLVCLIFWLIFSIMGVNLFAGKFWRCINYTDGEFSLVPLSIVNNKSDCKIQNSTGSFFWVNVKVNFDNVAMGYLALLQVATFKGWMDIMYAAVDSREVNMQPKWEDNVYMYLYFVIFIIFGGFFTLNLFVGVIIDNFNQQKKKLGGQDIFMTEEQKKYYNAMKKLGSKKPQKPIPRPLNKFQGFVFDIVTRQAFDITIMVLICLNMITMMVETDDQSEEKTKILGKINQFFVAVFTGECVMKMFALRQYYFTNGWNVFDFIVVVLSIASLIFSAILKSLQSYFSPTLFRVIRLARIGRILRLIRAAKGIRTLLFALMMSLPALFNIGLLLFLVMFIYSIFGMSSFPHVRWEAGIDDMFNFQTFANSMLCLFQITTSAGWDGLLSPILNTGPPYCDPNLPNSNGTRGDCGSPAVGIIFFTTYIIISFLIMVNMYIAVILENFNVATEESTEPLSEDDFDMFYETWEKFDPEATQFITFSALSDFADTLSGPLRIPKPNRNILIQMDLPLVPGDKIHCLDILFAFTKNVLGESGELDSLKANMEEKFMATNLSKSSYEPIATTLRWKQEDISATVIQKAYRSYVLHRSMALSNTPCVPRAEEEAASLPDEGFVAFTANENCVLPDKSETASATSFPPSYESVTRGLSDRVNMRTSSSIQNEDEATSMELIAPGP",
  "assay": "14C Guanidinium Ion Influx Binding Assay (flux assay)",
  "type": "cell-based",
  "conditions": "activity towards PN3, PN3 stably expressed in a host cell line, deltamethrine 10 μM",
  "protocol": "1.1 ^14C Guanidinium Ion Influx Binding Assay\nPN3 stably expressed in a host cell line were maintained in DMEM with 5% fetal bovine serum and 300 μg/ml G-418. The cells were subcultured and grown to confluence in 96-well plates 24-48 h before each experiment. After the growth medium was removed, the cells were washed with warm buffer (25 mM Hepes-Tris, 135 mM choline chloride, 5.4 mM potassium chloride, 0.98 mM magnesium sulfate, 5.5 mM glucose, and 1 mg/ml BSA, pH 7.4) and incubated in buffer on a 36° C. slide wanner for approximately 10 minutes. Various concentrations of the test compounds or standard sodium channel blockers (10 μM) and then deltamethrine (10 μM) were added to each well. After the cells were exposed to deltamethrine for 5 minutes, 5 μM of ^14C-guanidinium was added, incubated with the radioligand (30-60 min), washed with ice-cold buffer, and dissolved in 0.1N sodium hydroxide. The radioactivity and the protein concentration of each cell lysate were determined by liquid scintillation counting and the protein assay using Pierce BCA reagent.",
  "data": [
    {"smiles": "CCCCc1ccc(C(=O)N2CCC(n3c(=O)[nH]c4ccccc43)CC2)cc1", "note": "[Compound 34, 1-[1-(4-Butyl-benzoyl)-piperidin-4-yl]-1,3-dihydro-benzoimidazol-2-one]", "values": [
      {"measurement": "IC50", "value": "0.1 to 4", "unit": "µM"}
    ]},
    {"smiles": "CCCCc1ccc(C(=O)N2CCC(n3c(=O)n(C)c4ccccc43)CC2)cc1", "note": "[Compound 150, 1-[1-(4-Butyl-benzoyl)-piperidin-4-yl]-3-methyl-1,3-dihydro-benzoimidazol-2-one]", "values": [
      {"measurement": "IC50", "value": "0.1 to 4", "unit": "µM"}
    ]},
    {"smiles": "CCCCc1ccc(C(=O)N2CCC(n3c(=O)[nH]c4cc(F)ccc43)CC2)cc1", "note": "[Compound 160, 1-[1-(4-Butyl-benzoyl)-piperidin-4-yl]-5-fluoro-1,3-dihydro-benzoimidazol-2-one]", "values": [
      {"measurement": "IC50", "value": "0.1 to 4", "unit": "µM"}
    ]},
    {"smiles": "CCCCc1ccc(C(=O)N2CC=C(n3c(=O)[nH]c4ccccc43)CC2)cc1", "note": "[Compound 181, 1-[1-(4-Butyl-benzoyl)-1,2,3,6-tetrahydro-pyridin-4-yl]-1,3-dihydro-benzoimidazol-2-one]", "values": [
      {"measurement": "IC50", "value": "0.1 to 4", "unit": "µM"}
    ]},
    {"smiles": "CCCCc1ccc(C(=O)N2CCC(n3c(NCc4ccccn4)nc4ccccc43)CC2)cc1", "note": "[Compound 185, (4-Butyl-phenyl)-(4-{2-[(pyridin-2-ylmethyl)-amino]-benzoimidazol-1-yl}-piperidin-1-yl)-methanone]", "values": [
      {"measurement": "IC50", "value": "4.1 to 10", "unit": "µM"}
    ]},
    {"smiles": "CCCCCCNc1nc2ccccc2n1C1CCN(C(=O)c2ccc(CCCC)cc2)CC1", "note": "[Compound 188, (4-Butyl-phenyl)-[4-(2-hexylamino-benzoimidazol-1-yl)-piperidin-1-yl]-methanone]", "values": [
      {"measurement": "IC50", "value": "0.1 to 4", "unit": "µM"}
    ]},
    {"smiles": "CCCCc1ccc(C(=O)N2CCC(n3c(=O)n(Cc4ccncc4)c4ccccc43)CC2)cc1", "note": "[Compound 198, 1-[1-(4-Butyl-benzoyl)-piperidin-4-yl]-3-pyridin-4-ylmethyl-1,3-dihydro-benzoimidazol-2-one]", "values": [
      {"measurement": "IC50", "value": "0.1 to 4", "unit": "µM"}
    ]},
    {"smiles": "CCCCc1ccc(C(=O)N2CCC(n3c(=O)[nH]c4cccnc43)CC2)cc1", "note": "[Compound 200, 3-[1-(4-Butyl-benzoyl)-piperidin-4-yl]-1,3-dihydro-imidazo[4,5-b]pyridin-2-one]", "values": [
      {"measurement": "IC50", "value": "0.1 to 4", "unit": "µM"}
    ]},
    {"smiles": "CCCCc1ccc(C(=O)N2CCC(n3c(C)nc4ccccc43)CC2)cc1", "note": "[Compound 203, (4-Butyl-phenyl)-[4-(2-methyl-benzoimidazol-1-yl)-piperidin-1-yl]-methanone]", "values": [
      {"measurement": "IC50", "value": "4.1 to 10", "unit": "µM"}
    ]},
    {"smiles": "CCCCc1ccc(C(=O)N2CC=C(n3c(=O)n(C)c4ccccc43)CC2)cc1", "note": "[Compound 206, 1-[1-(4-Butyl-benzoyl)-1,2,3,6-tetrahydro-pyridin-4-yl]-3-methyl-1,3-dihydro-benzoimidazol-2-one]", "values": [
      {"measurement": "IC50", "value": "0.1 to 4", "unit": "µM"}
    ]},
    {"smiles": "CCCCc1ccc(C(=O)N2CC=C(n3c(=O)n(Cc4ccccc4)c4ccccc43)CC2)cc1", "note": "[Compound 208, 1-Benzyl-3-[1-(4-butyl-benzoyl)-1,2,3,6-tetrahydro-pyridin-4-yl]-1,3-dihydro-benzoimidazol-2-one]", "values": [
      {"measurement": "IC50", "value": "0.1 to 4", "unit": "µM"}
    ]},
    {"smiles": "CCCCc1ccc(C(=O)N2CCC(n3c(NCc4ccccc4)nc4ccccc43)CC2)cc1", "note": "[Compound 300, [4-(2-Benzylamino-benzoimidazol-1-yl)-piperidin-1-yl]-(4-butyl-phenyl)-methanone]", "values": [
      {"measurement": "IC50", "value": "0.1 to 4", "unit": "µM"}
    ]},
    {"smiles": "O=c1[nH]c2ccccc2n1C1CCN(S(=O)(=O)c2ccc3ccccc3c2)CC1", "note": "[Compound 304, 1-[1-(Naphthalene-2-sulfonyl)-piperidin-4-yl]-1,3-dihydro-benzoimidazol-2-one]", "values": [
      {"measurement": "IC50", "value": "4.1 to 10", "unit": "µM"}
    ]}
  ]
}
